Our source for the IC50 values is ChEMBL document CHEMBL1145911, “Rational design and synthesis of androgen receptor-targeted nonsteroidal anti-androgen ligands for the tumor-specific delivery of a doxorubicin-formaldehyde conjugate” (J Med Chem, 2003).

Molecules are shown by their SMILES.

The experiment deals with T1, Androgen receptor (Homo sapiens, UniProt P10275).
T1 sequence (P10275 whole entry): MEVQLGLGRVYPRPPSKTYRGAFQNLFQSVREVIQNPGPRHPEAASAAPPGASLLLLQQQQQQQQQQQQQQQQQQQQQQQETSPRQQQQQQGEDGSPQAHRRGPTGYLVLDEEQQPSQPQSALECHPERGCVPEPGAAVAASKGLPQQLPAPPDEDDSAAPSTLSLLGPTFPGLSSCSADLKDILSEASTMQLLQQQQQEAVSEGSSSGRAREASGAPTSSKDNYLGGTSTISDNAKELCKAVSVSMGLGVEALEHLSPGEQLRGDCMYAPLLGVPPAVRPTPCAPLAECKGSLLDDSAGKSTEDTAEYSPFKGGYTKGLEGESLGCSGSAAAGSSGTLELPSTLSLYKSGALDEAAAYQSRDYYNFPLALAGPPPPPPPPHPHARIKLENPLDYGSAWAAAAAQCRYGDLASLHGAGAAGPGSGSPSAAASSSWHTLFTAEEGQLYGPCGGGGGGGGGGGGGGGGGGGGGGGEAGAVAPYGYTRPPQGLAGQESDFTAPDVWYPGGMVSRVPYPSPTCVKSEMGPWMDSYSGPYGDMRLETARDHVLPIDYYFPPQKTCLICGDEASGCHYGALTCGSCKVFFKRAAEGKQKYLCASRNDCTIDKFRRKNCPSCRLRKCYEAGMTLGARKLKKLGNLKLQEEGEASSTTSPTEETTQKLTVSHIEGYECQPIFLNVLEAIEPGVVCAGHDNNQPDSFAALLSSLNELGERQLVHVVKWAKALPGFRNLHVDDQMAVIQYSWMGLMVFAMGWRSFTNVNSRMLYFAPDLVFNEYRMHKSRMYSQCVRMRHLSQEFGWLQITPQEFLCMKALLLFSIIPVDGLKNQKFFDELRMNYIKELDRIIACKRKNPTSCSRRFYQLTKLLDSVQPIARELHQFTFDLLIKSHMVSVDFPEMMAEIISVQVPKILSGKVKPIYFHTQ
The experiment can be described thus: biochemical.

`CC1(C)C(=O)N(c2ccc(C#N)c(C(F)(F)F)c2)C(=O)N1CCCCN1CCN(CCOCc2ccc(O)c(C(N)=O)c2)CC1`: the IC50 was greater than 1000 nM. The result for `COc1cccc2c1C(=O)c1c(O)c3c(c(O)c1C2=O)C[C@@](O)(C(=O)CO)C[C@@H]3OC1C[C@H](NCNC(=O)c2cc(COCC#CCN3C(=O)N(c4ccc(C#N)c(C(F)(F)F)c4)C(=O)C3(C)C)ccc2O)[C@H](O)[C@H](C)O1` (stereo partly drawn) reads 90 nM; that for `CC1(C)C(=O)N(c2ccc(C#N)c(C(F)(F)F)c2)C(=O)N1CCOCCN1CCN(CCOCc2ccc(O)c(C(N)=O)c2)CC1`, 346 nM.
